Structures are written as SMILES. Where “and” joins values, the source holds several entries; their conditions need not be identical. Equal values may be shown once.

The test system of data set [1] is cells. Briefly: Growth inhibition by cell counting 96 hrs post treatment. The format is cell-based. To be noted: 0.5 uM sapphyrin. As for the experimental part:
(§1) All cell lines were grown in RPMI 1640 with 10% fetal bovine serum. Cells were treated at a density of 100,000 cells/ml with sapphyrins for 24 hrs and then assessed for apoptosis. Some cells were cultured for up to 96 hrs and then assessed for growth inhibition by counting cells using a coulter counter. For the xenograft model, 10 million Ramos cells were injected subcutaneously into the right hind flank of CD-1 nude mice that had been irradiated with 3 Gy 24 hrs prior to tumor implantation. Seven days later, the mice were treated with sapphyrin given intravenously in the tail vein q day×2 doses. Some animals were sacrificed the next day for analysis of drug uptake in tumor and spleen, tumor cell killing and tumor cell culture.

A short description of a further data set: Animal toxicology. To be noted: for Animal toxicology: dose at which deaths were seen: in vivo; for Animal toxicology: highest doses that showed no deaths: numbers in parentheses.
Data set [2] concerns cells. Briefly: Annexin binding apoptosis assay, cells treated with sapphyrins for 24 hrs. The class given is cell-based. Also on record: key: Back = background; Sat = saturated assay conditions: killing greater 95%. The protocol: as §1
Annexin binding and propidium iodide exclusion were assayed using reagents from Biosource (Camarillo, Calif.) per manufacturer's protocol.

The subject of data set [3] is Lymphoma, Leukemia and Myeloma cell lines. Briefly: Cell death in Lymphoma, Leukemia and Myeloma cell lines (FIG. 11). The class given is cell-based. To be noted: 1 μM. The protocol: (§2) Cytotoxicity was evaluated using Annexin-V staining and caspase activation as markers of apoptosis. Cell lines were grown in RPMI 1640 with 10% heat inactivated fetal bovine serum. Example 12 was added to cell cultures in concentrations ranging from 100 nM-5 μM.

For the next data set, the system named is Ramos cells. Briefly: Cell death in Ramos cell line (FIG. 13-15). The class given is cell-based. The protocol:
as §1, §2

Consider `CCc1c(CC)c2cc3nc(cc4[nH]c(c(CC)c4CC)c4[nH]c(cc5nc(cc1[nH]2)C(CCCOC(=O)N(CCO)CCO)=C5C)c(CC)c4CC)C(C)=C3CCCOC(=O)N(CCO)CCO` [Example 1], for which, in the data set on cells [1] (listed as Ex. 1), the “After 96 hr (GI = growth inhibition 96 hrs post treatment compared to control untreated cells)” value was 91% and 52%. Besides, in “Animal toxicology” (at 26.8 uM/kg), the “Animal toxicology: animals dead” value is given as 1/9 dead at. For the same molecule, in “Animal toxicology”, the “Animal toxicology: dose at which deaths were seen” value was 26.8 uM/kg. The “Animal toxicology: highest doses that showed no deaths” value in the data set “Animal toxicology” was determined as 22.3 uM/kg. The “% Annexin positive cells after 24 hrs (sapphyrin dose)” value (from here on “% Annexin positive cells after 24 hrs”) is 38% and 30% with cells [2] (1 uM sapphyrin, listed as Ex. 1); 99% and 96% in the data set on cells [2] (2.5 uM sapphyrin, listed as Ex. 1); “sat” with cells [2] (5 uM sapphyrin); “Back” in the data set on cells [2] (0.5 Um sapphyrin).
Take `CCc1c(CC)c2cc3nc(cc4[nH]c(c(CC)c4CC)c4[nH]c(cc5nc(cc1[nH]2)C(CCCOC(=O)NC(CO)(CO)CO)=C5C)c(CC)c4CC)C(C)=C3CCCOC(=O)NC(CO)(CO)CO` [Example 2]: the “After 96 hr (GI = growth inhibition 96 hrs post treatment compared to control untreated cells)” value in the data set on cells [1] turned out to be 13%. In addition, the “Animal toxicology: animals dead” value in the data set “Animal toxicology” (at 40 uM/kg) was 4/6 dead. The “Animal toxicology: dose at which deaths were seen” value in the data set “Animal toxicology” came out at 40 uM/kg. Further, in the data set “Animal toxicology”, the “Animal toxicology: highest doses that showed no deaths” value is 30 uM/kg. Also, the “% Annexin positive cells after 24 hrs” value with cells [2] (1 uM sapphyrin) was 10%; in the data set on cells [2] (2.5 uM sapphyrin), 41%; in the data set with cells [2] (5 uM sapphyrin) it was 97%; with cells [2] (0.5 Um sapphyrin) it was “Back”.
As for `CCc1c(CC)c2cc3nc(cc4[nH]c(c(CC)c4CC)c4[nH]c(cc5nc(cc1[nH]2)C(CCCOC(=O)NCCOCCOCCOC)=C5C)c(CC)c4CC)C(C)=C3CCCOC(=O)NCCOCCOCCOC` [Example 3], the “% Annexin positive cells after 24 hrs” value is 93% in the data set on cells [2] (1 uM sapphyrin), “sat” in the data set on cells [2] (2.5 uM sapphyrin), “sat” in the data set on cells [2] (5 uM sapphyrin) and 10.6% with cells [2] (0.5 Um sapphyrin).
With `CCc1c(CC)c2cc3nc(cc4[nH]c(c(CC)c4CC)c4[nH]c(cc5nc(cc1[nH]2)C(CCCO)=C5C)c(CC)c4CC)C(C)=C3CCCO` [Example 12], the “Increase in cell death” value in data set [3] is recorded as “at least a five-fold increase in cell death”. In addition, the “Dose response of cell death” value is listed as “An increase in the amount of Example 12 causes an increase in cell death” with Ramos cells (Ramos cell line, 8 hours, FIG. 14) and “An increase in the amount of Example 12 causes an increase in cell death” in the data set on Ramos cells (Ramos cell lines, 48 hours incubation, FIG. 13).
For `O=C1NC(=O)c2ccccc21` [Phthalimide], in the data set on cells [1], the “After 96 hr (GI = growth inhibition 96 hrs post treatment compared to control untreated cells)” value is recorded as “GI-50%”. Moreover, the “% Annexin positive cells after 24 hrs” value is given as 16% in the data set with cells [2] (1 uM sapphyrin), “sat” in the data set with cells [2] (5 uM sapphyrin) and “back” with cells [2] (0.5 Um sapphyrin).

The values are drawn from US20060241166A1, “Sapphyrins and uses thereof” (Pharmacyclica, Inc., priority 2003, published 2006).
